Tests used:
[1] = target: T1, human A1 receptors expressed in CHO membranes (Homo sapiens, UniProt P30542); assay: Allosteric enhancement of specific binding of [3H]CCPA to hCHO-A1 membranes; details: compound tested at 10 μM concentration
T1 construct: expressed in transfected cells; host or cells: CHO cells (hCHO-A1 clone), membrane preparation
T1 sequence (P30542 1-326): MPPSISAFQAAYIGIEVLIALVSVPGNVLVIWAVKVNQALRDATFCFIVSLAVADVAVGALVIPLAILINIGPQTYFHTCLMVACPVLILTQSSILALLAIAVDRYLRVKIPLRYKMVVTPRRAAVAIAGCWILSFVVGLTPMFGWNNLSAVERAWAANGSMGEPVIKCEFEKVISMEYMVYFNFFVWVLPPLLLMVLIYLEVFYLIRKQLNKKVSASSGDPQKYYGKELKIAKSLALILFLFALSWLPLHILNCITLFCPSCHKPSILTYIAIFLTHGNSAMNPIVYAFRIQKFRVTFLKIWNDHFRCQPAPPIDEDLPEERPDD
Experimental: (§1) Membrane Preparation from CHO Cells Transfected with the Human Recombinant A1, A2A and A3 Adenosine Receptors
The hCHO-A1, hCHO-A2A and hCHO-A3 cell clones are grown adherently and maintained in Dulbecco's modified Eagle's medium with nutrient mixture F12, containing 10% fetal calf serum, penicillin (100 U/mL), streptomycin (100 μg/mL), L-glutamine (2 mM), geneticine (G418) 0.2mg/mL at 37° C. in 5% CO2/95% air. 30 min at 37° C. (Klotz et al. Naunyn-Schmied. Arch Pharm. 1998, 357, 1-9). Cells are split two or three times weekly at a ratio of between 1:5 and 1:10. For membrane preparation the culture medium is removed. The cells are washed with PBS and scraped off T75 flasks in ice-cold hypotonic buffer (5 mM Tris HCl, 2 mM EDTA, pH 7.4). The cell suspension is homogenized with Polytron and the homogenate is spun for 10 min at 1,000×g. The supernatant is then centrifuged for 30 min at 100,000×g. […] The protein concentration is determined according to a Bio-Rad method (Bradford, 1976) with bovine albumin as a standard reference.
To determine the effect of the compounds of the present invention on the binding to A1, A2A and A3 receptors, membranes from hCHO-A1, hCHO-A2A, hCHO-A3 are incubated in a buffer solution in the absence and in the presence of the examined compounds. […] Bound and free radioactivity are separated by filtering the assay mixture through Whatman GF/B glass fibre filters using a Micro-mate 196 cell harvester (Packard Instrument Company). The filter bound radioactivity is counted on Top Count Microplate Scintillation Counter (efficacy 57%) with Micro-Scint 20. […]
Competition experiments are carried out in triplicate in a final volume of 250 μL in test tubes containing 1 nM [^3H]CCPA, 50 mM Tris-HCl, pH 7.4 and 100 μL of diluted membranes and at least six to eight different concentrations of the tested compounds in the range from 1 nM to 50 μM for 90 min at 25° C. […] Allosteric enhancement is measured as the action of different concentrations of the tested compounds to increase the specific binding of 1 nM [^3H]CCPA to hCHO-A1 membranes.

[2] = target: T1, human A1 receptors expressed in CHO membranes; assay: Saturation binding of [3H]CCPA to hCHO-A1; details: compound tested at 10 μM concentration
Experimental: as §1
The hCHO-A1, hCHO-A2A and hCHO-A3 cell clones are grown adherently and maintained in Dulbecco's modified Eagle's medium with nutrient mixture F12, containing 10% fetal calf serum, penicillin (100 U/mL), streptomycin (100 μg/mL), L-glutamine (2 mM), geneticine (G418) 0.2mg/mL at 37° C. in 5% CO2/95% air. 30 min at 37° C. (Klotz et al. Naunyn-Schmied. Arch Pharm. 1998, 357, 1-9). Cells are split two or three times weekly at a ratio of between 1:5 and 1:10. For membrane preparation the culture medium is removed. The cells are washed with PBS and scraped off T75 flasks in ice-cold hypotonic buffer (5 mM Tris HCl, 2 mM EDTA, pH 7.4). The cell suspension is homogenized with Polytron and the homogenate is spun for 10 min at 1,000×g. The supernatant is then centrifuged for 30 min at 100,000×g. The membrane pellet is resuspended in 50 mM Tris HCl buffer pH 7.4 for The A1 adenosine receptors, 50 mM Tris HCl buffer pH 7.4, 10 mM MgCl2 for A2A adenosine receptors, 50 mM Tris HCl buffer pH 7.4, 10 mM MgCl2, 1 mM EDTA for A3 adenosine receptors and incubated with 3 Ul/mL of adenosine deaminase for 30 min at 37° C. The protein concentration is determined according to a Bio-Rad method (Bradford, 1976) with bovine albumin as a standard reference.
To determine the effect of the compounds of the present invention on the binding to A1, A2A and A3 receptors, membranes from hCHO-A1, hCHO-A2A, hCHO-A3 are incubated in a buffer solution in the absence and in the presence of the examined compounds. Test agents are dissolved in DMSO and added to the assay from a 100-fold concentrated solution in DMSO. Control incubations also contain 1% DMSO. Bound and free radioactivity are separated by filtering the assay mixture through Whatman GF/B glass fibre filters using a Micro-mate 196 cell harvester (Packard Instrument Company). The filter bound radioactivity is counted on Top Count Microplate Scintillation Counter (efficacy 57%) with Micro-Scint 20.
Saturation Binding of [^3H]CCPA to hCHO-A1 […]

Row | increase of the A1 specific binding of the agonist [3H]CCPA to human CHO-A1 membranes [1] | increase in the BMAX value of the agonist [3H]CCPA [2] | melting point [°C] | SMILES
1 | up to 4.4 fold | about 3.5 fold |  | Nc1sc(-c2ccccc2)c(CN(C2CCCCC2)C2CCCCC2)c1C(=O)c1ccc(Cl)cc1 [Example 2, {2-Amino-4-[(dicyclohexylamino)methyl]-5-phenyithiophen-3-yl}(4-chlorophenyl)methanone]
2 | ≤ 5.5 fold | ~6.3 fold |  | CC(C)(C)CN(Cc1c(-c2ccccc2)sc(N)c1C(=O)c1ccc(Cl)cc1)CC(C)(C)C [Example 16-9, {2-Amino-4-[(dineopentylamino)methyl]-5-phenylthiophen-3-yl}(4-chlorophenyl)methanone]
3 | ≤ 4.2 fold | ~4.6 fold | 197 to 199 | Nc1sc(-c2cccs2)c(CN(C2CCCCC2)C2CCCCC2)c1C(=O)c1ccc(Cl)cc1 [Example 30, {2-Amino-4-[(dicyclohexylamino)methyl]-5-(thiophen-2-yl)thiophen-3-yl}(4-chlorophenyl)methanone]

From US20120108636A1, “Allosteric Enhancers of th A1 Adenosine Receptor” (King Pharmaceuticals Research and Development, Inc., priority 2008, published 2012)
